# Measured values from US20110117026A1, “METHODS AND COMPOSITIONS FOR THE DELIVERY OF BIOACTIVE COMPOUNDS” (priority 2008, published 2011).
# Non-standard residues stand in square brackets, D forms with d. Residues, ends and D or L forms follow the SMILES beside them. No end group written: not given here. pY = N[C@@H](Cc1ccc(OP(=O)(O)O)cc1)C(=O)O
# Experiments:
# [1] = molecular target: T1, STAT5b phosphorylation by EGFR (Homo sapiens, UniProt P51692); experiment: Cell-free inhibition of STAT5b phosphorylation in H460 cell lysate (Western blot); type: biochemical
# T1 construct: In a cell-free system containing the lysate of H460 cells treated with EGF; endogenous in cells; host or cells: H460 cell lysate (cells treated with EGF)
# T1 sequence (P51692 1-787): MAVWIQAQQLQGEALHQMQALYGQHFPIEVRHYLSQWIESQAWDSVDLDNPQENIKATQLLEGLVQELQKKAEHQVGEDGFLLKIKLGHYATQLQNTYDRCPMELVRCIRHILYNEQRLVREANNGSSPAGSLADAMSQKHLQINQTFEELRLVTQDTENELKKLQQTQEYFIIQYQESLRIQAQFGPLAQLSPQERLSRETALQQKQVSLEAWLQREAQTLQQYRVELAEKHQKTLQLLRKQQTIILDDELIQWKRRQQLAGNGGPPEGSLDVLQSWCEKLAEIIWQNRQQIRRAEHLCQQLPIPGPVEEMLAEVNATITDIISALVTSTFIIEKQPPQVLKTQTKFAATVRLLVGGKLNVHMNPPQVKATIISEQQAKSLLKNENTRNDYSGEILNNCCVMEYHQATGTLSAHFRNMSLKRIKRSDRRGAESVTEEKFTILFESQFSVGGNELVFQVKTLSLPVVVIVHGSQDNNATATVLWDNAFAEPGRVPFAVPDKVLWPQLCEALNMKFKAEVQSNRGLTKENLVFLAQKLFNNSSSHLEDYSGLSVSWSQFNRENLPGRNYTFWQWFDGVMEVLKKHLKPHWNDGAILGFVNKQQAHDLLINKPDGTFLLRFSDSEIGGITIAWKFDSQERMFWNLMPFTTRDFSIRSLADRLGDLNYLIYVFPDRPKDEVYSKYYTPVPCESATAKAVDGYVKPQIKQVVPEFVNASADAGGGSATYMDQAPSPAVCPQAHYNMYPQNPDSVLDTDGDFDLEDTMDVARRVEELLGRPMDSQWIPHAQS
# Experimental: FIGS. 20A and 20B show the inhibition of STAT5b phosphorylation by the EV peptide (SEQ ID NO: 3) in a tumor cell lysate. Increasing amounts of EV peptide was added to the assay mixture containing H460 cell lysate. The degree of STAT5b phosphorylation was detected by Western blot (FIG. 20A) using a phosphorylated STAT5b specific monoclonal antibody. The data was analyzed by Image J software to obtain the IC50 (FIG. 20B).
# Studies were initiated by selecting a highly anionic peptide that can block an important intracellular signaling event. The phosphorylation and activation of the signal transducer and activator of transcription 5b (STAT5b) by the epidermal growth factor receptor (EGFR) tyrosine kinase was chosen as the targeted signaling event. STAT proteins are cytoplasmic proteins that function as secondary messengers and transcription factors. The STAT proteins have a phosphotyrosine binding domain of src-homology 2 (SH2). The potential of the SH2 domain to interact with a number of signaling proteins allow the STATs to interfere with multiple cell signaling pathways (Mohamad and Mohammad (2006) JK-Practitioner 13(4):215-221). STAT activation has been implicated in human cancer cells, including the activation of upstream receptor tyrosine kinases, such as the EGFR, as well as nonreceptor kinases. […]
# [2] = tested on: H460 cells; experiment: Uptake of Alexa488 EV peptide by H460 cells; type: cell-based, human; conditions: Alexa488-labeled EV peptide, 4 h
# Experimental: After treating H460 cells for four hours with an Alexa488 conjugated EV peptide formulated in LPH, PEG-LPH, or PEG-AA-LPH, cells were washed, treated with Triton X-100, and the fluorescence of the cell extract was determined with a fluorometer.
# The uptake of the peptide by H460 cells was first studied in vitro. The EV peptide was fluorescently labeled with Alexa488 at the N-terminal α-NH2 group, purified by gel filtration, and formulated in the nanoparticles. […] Free EV peptide was not taken up by H460 cells at all.
# [3] = tested on: H460 cells; experiment: Inhibition of H460 cell growth; type: cell-based, human; conditions: EV peptide 5 μM
# Experimental: H460 cells were treated with the EV peptide (5 μM) formulated in LPH-PEG-AA, LPH-PEG, or as a free peptide.
# (§1) The effect of the delivered EV peptide on the growth of H460 cells was then investigated.
# [4] = tested on: H460 cells; experiment: Apoptosis of H460 cells by flow cytometry (annexin V, propidium iodide); type: cell-based, human; conditions: 48 hours after treatment
# Experimental: Cells were stained with propidium iodide (PI) and Annexin V-FITC at 48 hours after treatment with a PEGylated LPH with AA or without AA.
# as §1
# [5] = molecular target: T2, recombinant caspase 3 (Homo sapiens, UniProt P42574); experiment: Cleavage of imaging peptide by caspase 3 (Cy5.5/Cy7 FRET, nanofluorometer); type: biochemical
# T2 sequence (P42574 29-175 limits assumed): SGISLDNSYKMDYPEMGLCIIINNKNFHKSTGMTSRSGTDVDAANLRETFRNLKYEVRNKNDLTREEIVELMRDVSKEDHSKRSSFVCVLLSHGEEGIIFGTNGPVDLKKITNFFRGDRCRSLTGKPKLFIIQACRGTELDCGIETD
# T2 sequence (P42574 176-277 limits assumed): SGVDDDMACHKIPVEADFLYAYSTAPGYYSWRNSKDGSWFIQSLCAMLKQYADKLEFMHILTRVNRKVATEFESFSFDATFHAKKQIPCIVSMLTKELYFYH
# Experimental: The fluorescence emission profiles of untreated peptide (FIG. 27A), peptide treated with 60 units of caspase-3 for 2 hours (FIG. 27B), peptide treated with 0.1 mg BSA (FIG. 27C), and peptide treated with 60 units caspase-3 that was pre-incubated with 10 μM caspase-3 inhibitor for one hour (FIG. 27D) were measured with a nanofluorometer.
# The fluorescence spectrum of the peptide was recorded with a nanofluorometer which only requires a 2 μL sample volume.
# [6] = molecular target: T3, STAT5b (Homo sapiens, UniProt P51692); experiment: STAT5b phosphorylation in intact H460 cells (ELISA); type: cell-based; conditions: 3.4 μM peptide, 24 h
# T3 construct: endogenous in cells; host or cells: H460 cells
# T3 sequence (P51692 1-787): T1 sequence (P51692 1-787)
# Experimental: FIG. 22 provides a graph depicting the inhibition of STAT5b phosphorylation by the EV peptide. At 24 hours after treating H460 cells with LPH, LPH-PEG or LPH-PEG-AA comprising the EV (SEQ ID NO: 3) or EE (SEQ ID NO: 4) peptide or the free peptide at 3.4 μM, the reduction of phosphorylated Stat5b was assayed with an ELISA.
# Next, the pharmacodynamics of the EV peptide was studied in vitro.
compound,measurement,setting,value
"CC(C)C[C@H](NC(=O)[C@H](CCC(=O)O)NC(=O)[C@H](Cc1ccccc1)NC(=O)[C@H](Cc1ccc(OP(=O)(O)O)cc1)NC(=O)[C@H](CCC(=O)O)NC(=O)[C@H](CCC(=O)O)NC(=O)[C@H](CCC(=O)O)NC(=O)[C@@H](N)CCC(=O)O)C(=O)N[C@H](C(=O)O)C(C)C [EV peptide, EEEE(pY)FELV] (H-EEEE[pY]FELV-OH; C-terminus assumed)",IC50,[1],2500 nM
same,uptake by H460 cells,[2],not taken up
same,effect on growth of H460 cells,[3],no effect
same,"apoptosis, in words",[4],without any effect
"Ac-KDEVDCDEVDKDEVDC (also: Cy5.5 on Cys, Cy7 on Lys) [imaging peptide, caspase 3 FRET reporter]",ratio of Cy5.5/Cy7,"[5]; after incubation with recombinant caspase 3 (60 units, 2 hours)",2.70
same,ratio of Cy5.5/Cy7,[5]; intact (untreated) peptide,1.74
"E(pY)ELFEEVE (E[pY]ELFEEVE) [EE peptide, reference compound]","effect on STAT5b phosphorylation, in words",[6],did not show any significant effect
